Assay results as given in patent US20070122422A1, “Sodium-independent small neutral amino acid transporter transporting L- and D- amino acids” (Japan Science and Technology Corporation, priority 2000, published 2007).

Columns and labels:
Format in all cases: cell-based
[1] = biological target: T1, asc-1 of mouse (co-expressed with 4F2hc of mouse) (Mus musculus, UniProt P63115); experiment: Incorporation of radiolabeled amino acids and analogs by oocytes co-expressing asc-1 and 4F2hc; details: summary statement; asc-1 co-existing with 4F2hc
T1 construct: expressed in transfected cells; host or cells: Xenopus oocytes injected with cRNA
T1 sequence (P63115 1-530): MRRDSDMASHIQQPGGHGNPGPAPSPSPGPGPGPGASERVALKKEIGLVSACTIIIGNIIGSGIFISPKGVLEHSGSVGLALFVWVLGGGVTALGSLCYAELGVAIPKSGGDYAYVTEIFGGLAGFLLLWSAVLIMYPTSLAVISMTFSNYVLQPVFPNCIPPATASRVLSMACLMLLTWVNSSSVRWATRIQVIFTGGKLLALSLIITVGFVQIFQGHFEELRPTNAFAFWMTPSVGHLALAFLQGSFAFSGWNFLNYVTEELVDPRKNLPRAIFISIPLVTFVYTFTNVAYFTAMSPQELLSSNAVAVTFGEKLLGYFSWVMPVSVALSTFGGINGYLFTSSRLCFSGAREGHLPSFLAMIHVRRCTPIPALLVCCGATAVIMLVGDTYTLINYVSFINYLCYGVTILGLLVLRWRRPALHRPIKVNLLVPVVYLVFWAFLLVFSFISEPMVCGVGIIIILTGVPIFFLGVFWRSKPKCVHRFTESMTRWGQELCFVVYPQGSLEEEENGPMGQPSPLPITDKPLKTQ
T1 sequence (P10852 1-526 partner): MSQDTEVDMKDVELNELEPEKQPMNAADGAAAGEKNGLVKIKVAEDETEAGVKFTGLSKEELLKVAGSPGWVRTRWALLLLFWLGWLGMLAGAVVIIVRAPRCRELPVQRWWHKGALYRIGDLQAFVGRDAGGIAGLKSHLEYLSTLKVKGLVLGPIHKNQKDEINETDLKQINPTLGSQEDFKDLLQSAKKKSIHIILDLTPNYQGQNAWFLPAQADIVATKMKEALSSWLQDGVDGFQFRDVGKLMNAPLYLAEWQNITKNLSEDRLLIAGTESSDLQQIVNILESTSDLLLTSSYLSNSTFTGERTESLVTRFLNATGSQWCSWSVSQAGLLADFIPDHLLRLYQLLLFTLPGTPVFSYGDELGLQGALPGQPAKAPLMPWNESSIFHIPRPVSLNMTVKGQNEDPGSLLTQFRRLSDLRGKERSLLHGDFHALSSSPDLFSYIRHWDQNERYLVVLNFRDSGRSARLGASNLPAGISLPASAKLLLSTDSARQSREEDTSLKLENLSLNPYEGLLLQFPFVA
Description: Incorporation of alanine when asc-1 gene cRNA of mouse was solely expressed in oocytes of Xenopus and when asc-1 gene cRNA of mouse and 4F2hc gene cRNA of mouse were expressed in oocytes of Xenopus together was compared.
(§1) Into oocytes were injected 12 ng of asc-1 gene cRNA of mouse, 13 ng of 4F2hc gene cRNA of mouse or 12 ng asc-1 gene cRNA of mouse/13 ng of 4F2hc gene cRNA of mouse to express followed by incubating for 3 days. […] Thus, the oocytes were allowed to stand for 30 minutes in a Na^+-free uptake solution [100 mM choline chloride, 2 mM potassium chloride, 1.8 mM calcium chloride, 1 mM magnesium chloride, 5 mM HEPES; pH 7.4] containing ^14C-alanine (100 μM) as a substrate and the rate of the substrate incorporated into the cells was measured by way of counting the radioactivity incorporated thereinto.
In an experiment of incorporation of alanine by oocytes into which both asc-1 gene cRNA and 4F2hc gene cRNA of mouse were injected together, influence of the salt added to the medium was investigated.
The experiment of incorporation of alanine was carried out in accordance with the method mentioned in the above Example 2(1) using oocytes into which both asc-1 gene cRNA and 4F2hc gene cRNA of mouse were injected together. When the influence of sodium ion was checked however, a standard uptake solution (where 100 mM choline chloride was substituted with 100 mM sodium chloride) was used in place of the Na^+-free uptake solution as the uptake solution. When the influence of chlorine ion was checked, a gluconic acid uptake solution (where 100 mM sodium chloride was substituted with 100 mM sodium gluconate) was used in place of the standard uptake solution.
Incorporation by asc-1 was investigated using various amino acids and analogs thereof as substrates. Experiment for incorporation of various amino acids and analogs thereof was carried out according to the method mentioned in the above Example 2(1) using oocytes into which asc-1 gene cRNA of mouse and 4F2hc gene cRNA of mouse were injected together. With regard to the substrates however, various compounds labeled with radioactivity were used in place of ^14C-alanine.
Influence of pH was checked in an experiment for incorporation of alanine by oocytes into which both asc-1 gene cRNA and 4F2hc gene cRNA of mouse were injected together. With regard to an experiment for incorporation of alanine, the method according to that mentioned in the above Example 2 (1) was carried out using oocytes into which both asc-1 gene cRNA of mouse and 4F2hc gene cRNA of mouse were injected together.

[2] = biological target: T2, LAT1 of rat (co-expressed with 4F2hc of rat) (Rattus norvegicus, UniProt Q63016, Q506C); experiment: Release of injected 14C-leucine from oocytes co-expressing LAT1 and 4F2hc of rat; details: leucine 100 μM added or not added outside the cells
T2 construct: expressed in transfected cells; host or cells: oocytes injected with cRNA (per Kanai et al., J. Biol. Chem. 273:23629)
T2 sequence (Q63016 whole entry Q506C): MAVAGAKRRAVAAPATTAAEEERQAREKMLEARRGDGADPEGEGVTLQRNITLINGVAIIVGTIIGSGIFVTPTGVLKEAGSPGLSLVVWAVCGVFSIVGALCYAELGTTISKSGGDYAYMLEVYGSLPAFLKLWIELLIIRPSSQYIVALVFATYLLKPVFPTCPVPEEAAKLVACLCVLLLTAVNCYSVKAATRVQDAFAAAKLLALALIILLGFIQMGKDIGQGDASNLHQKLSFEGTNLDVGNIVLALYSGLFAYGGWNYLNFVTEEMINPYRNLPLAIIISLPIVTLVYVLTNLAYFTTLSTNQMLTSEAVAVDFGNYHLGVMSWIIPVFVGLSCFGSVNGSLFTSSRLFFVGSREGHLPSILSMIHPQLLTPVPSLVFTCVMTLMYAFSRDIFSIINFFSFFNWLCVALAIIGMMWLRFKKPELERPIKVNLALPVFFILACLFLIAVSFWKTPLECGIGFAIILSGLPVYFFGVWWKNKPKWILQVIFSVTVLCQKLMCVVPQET
T2 sequence (Q794F9 whole entry partner): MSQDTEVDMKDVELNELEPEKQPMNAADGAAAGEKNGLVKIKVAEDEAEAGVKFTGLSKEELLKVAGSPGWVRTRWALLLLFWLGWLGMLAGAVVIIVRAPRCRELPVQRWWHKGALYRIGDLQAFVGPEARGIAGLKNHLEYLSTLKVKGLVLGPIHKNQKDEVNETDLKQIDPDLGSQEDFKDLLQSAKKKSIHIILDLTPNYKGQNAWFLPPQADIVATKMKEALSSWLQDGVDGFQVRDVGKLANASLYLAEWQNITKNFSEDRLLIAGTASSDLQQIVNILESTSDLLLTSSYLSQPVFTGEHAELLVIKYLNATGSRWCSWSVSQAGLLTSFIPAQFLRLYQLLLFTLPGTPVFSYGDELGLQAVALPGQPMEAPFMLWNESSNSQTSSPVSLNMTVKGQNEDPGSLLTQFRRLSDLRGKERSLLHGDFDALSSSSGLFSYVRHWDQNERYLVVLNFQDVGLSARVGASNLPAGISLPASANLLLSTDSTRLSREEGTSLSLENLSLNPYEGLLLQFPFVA
Description: Further, ^14C-leucine was similarly injected into oocytes into which LAT1 gene cRNA and 4F2hc gene cRNA of rat were injected together (Kanai et al., J. Biol. Chem., volume 273, page 23629, […]), washed with an ice-cooled Na^+-free uptake solution containing no leucine and transferred to a Na^+-free uptake solution to which leucine (100 μM) was added or not added at room temperature (18° C.-22° C.) whereupon the amount of ^14C-leucine released outside the cells was measured.
In the drawing, 0 is the case where, in the release of ^14C-leucine in the oocytes into which water is injected as a control instead of cRNA of rat LAT1 gene and cRNA of rat 4F2hc gene, a Na^+-free uptake solution to which no leucine is added is used; ● is the case where, in the release of ^14C-leucine in the oocytes into which water is injected as a control instead of cRNA of rat LAT1 gene and cRNA of rat 4F2hc gene, a Na^+-free uptake solution to which leucine is added is used; ● is the case where, in the release of ^14C-leucine in the oocytes into which cRNA of rat LAT1 gene and cRNA of rat 4F2hc gene are injected, a Na^+-free uptake solution to which no leucine is added is used; and ▪ is the case where, in the release of ^14C-leucine in the oocytes into which cRNA of rat LAT1 gene and cRNA of rat 4F2hc gene are injected, a Na^+-free uptake solution to which leucine is added is used.

[3] = biological target: T1, asc-1 of mouse (co-expressed with 4F2hc of mouse); experiment: Michaelis-Menten kinetic test of substrate incorporation by Xenopus oocytes co-expressing asc-1 and 4F2hc; details: ratio to the Vmax value for alanine (defined as 1.00)
Description: as §1
A Michaelis-Menten kinetic test was carried out for a sodium-independent small neutral amino acid transporter asc-1 which transports L- and D-amino acids. By checking the changes in the rate of incorporation of alanine due to the difference in concentration of the alanine substrate, the Michaelis-Menten kinetic test of asc-1 was carried out.
An experiment for the incorporation of alanine was carried out according to the method mentioned in the above Example 2(1) using the oocytes into which both asc-1 gene cRNA of mouse and 4F2hc gene cRNA of mouse were injected.
With regard to amino acids other than alanine which were used as substrates, a Michaelis-Menten kinetic was carried out as well in the same manner whereupon Km values and Vmax values were calculated. Each Vmax value in Table 1 was shown in terms of the ratio when the Vmax value of alanine was defined as 1.00.

CC(C)C[C@H](N)C(=O)O [L-Leucine]
transport by asc-1 (affinity in words) [1]: lowly affinitive
release of 14C-leucine [2]: observed only when leucine was added
Vmax [3]: 0.58
